Holding throughout (assay): HDAC enzyme inhibition, fluorogenic peptide substrate
Assay type in all cases: biochemical
Conditions in all cases: purified human enzyme, fluorogenic peptide substrate 10 μM

The target in test [1] is HDAC1 (Homo sapiens, UniProt Q13547). The procedure:
(§1) The substrate was incubated with the eleven single HDAC purified enzymes. Upon its deacetylation, the fluorophore was released given rise to fluorescence emission. The latter was detected by a fluorimeter, and the IC50 values of the compounds were determined by analyzing dose-response inhibition curves. TSA and SAHA were used as reference compounds.

For test [2], the target named is T1, HDAC10 (Homo sapiens, UniProt Q969S8).
T1 sequence (Q969S8 1-669): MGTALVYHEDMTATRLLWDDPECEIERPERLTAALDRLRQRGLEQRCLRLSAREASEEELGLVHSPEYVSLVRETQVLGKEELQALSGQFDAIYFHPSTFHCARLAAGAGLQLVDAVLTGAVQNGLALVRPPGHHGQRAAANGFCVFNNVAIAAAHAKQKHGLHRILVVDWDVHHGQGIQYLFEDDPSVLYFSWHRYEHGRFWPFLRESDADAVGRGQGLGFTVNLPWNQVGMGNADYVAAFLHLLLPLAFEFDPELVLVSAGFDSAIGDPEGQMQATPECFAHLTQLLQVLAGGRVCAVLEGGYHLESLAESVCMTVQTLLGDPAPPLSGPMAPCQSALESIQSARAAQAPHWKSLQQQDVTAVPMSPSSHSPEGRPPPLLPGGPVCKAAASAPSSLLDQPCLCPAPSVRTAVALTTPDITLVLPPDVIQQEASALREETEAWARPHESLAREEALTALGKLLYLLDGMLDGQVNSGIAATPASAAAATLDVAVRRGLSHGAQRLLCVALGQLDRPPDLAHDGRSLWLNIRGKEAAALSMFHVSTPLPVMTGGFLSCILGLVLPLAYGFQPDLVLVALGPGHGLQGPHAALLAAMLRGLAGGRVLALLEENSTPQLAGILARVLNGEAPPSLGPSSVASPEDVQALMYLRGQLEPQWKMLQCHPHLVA
The procedure: as §1

The target of test [3] is T2, HDAC11 (Homo sapiens, UniProt Q96DB2).
T2 sequence (Q96DB2 1-347): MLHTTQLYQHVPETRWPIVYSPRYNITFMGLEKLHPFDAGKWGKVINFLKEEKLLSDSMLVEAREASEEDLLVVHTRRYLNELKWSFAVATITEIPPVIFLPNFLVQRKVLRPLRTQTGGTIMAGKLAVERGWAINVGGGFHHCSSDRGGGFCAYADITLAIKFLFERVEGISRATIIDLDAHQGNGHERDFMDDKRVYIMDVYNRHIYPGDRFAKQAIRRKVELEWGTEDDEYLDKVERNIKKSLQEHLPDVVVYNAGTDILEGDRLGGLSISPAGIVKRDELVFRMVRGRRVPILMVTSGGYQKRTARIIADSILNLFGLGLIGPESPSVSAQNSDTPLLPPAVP
The procedure: as §1

In test [4] the target is HDAC2 (Homo sapiens, UniProt Q92769). The procedure: as §1
The target of test [5] is HDAC3 (Homo sapiens, UniProt O15379). The protocol: as §1
In test [6] the target is HDAC4 (Homo sapiens, UniProt P56524). The protocol: as §1
The target of test [7] is HDAC5 (Homo sapiens, UniProt Q9UQL6). The procedure: as §1
Test [8] deals with T3, HDAC6 (Homo sapiens, UniProt Q9UBN7).
T3 sequence (Q9UBN7 1-1215): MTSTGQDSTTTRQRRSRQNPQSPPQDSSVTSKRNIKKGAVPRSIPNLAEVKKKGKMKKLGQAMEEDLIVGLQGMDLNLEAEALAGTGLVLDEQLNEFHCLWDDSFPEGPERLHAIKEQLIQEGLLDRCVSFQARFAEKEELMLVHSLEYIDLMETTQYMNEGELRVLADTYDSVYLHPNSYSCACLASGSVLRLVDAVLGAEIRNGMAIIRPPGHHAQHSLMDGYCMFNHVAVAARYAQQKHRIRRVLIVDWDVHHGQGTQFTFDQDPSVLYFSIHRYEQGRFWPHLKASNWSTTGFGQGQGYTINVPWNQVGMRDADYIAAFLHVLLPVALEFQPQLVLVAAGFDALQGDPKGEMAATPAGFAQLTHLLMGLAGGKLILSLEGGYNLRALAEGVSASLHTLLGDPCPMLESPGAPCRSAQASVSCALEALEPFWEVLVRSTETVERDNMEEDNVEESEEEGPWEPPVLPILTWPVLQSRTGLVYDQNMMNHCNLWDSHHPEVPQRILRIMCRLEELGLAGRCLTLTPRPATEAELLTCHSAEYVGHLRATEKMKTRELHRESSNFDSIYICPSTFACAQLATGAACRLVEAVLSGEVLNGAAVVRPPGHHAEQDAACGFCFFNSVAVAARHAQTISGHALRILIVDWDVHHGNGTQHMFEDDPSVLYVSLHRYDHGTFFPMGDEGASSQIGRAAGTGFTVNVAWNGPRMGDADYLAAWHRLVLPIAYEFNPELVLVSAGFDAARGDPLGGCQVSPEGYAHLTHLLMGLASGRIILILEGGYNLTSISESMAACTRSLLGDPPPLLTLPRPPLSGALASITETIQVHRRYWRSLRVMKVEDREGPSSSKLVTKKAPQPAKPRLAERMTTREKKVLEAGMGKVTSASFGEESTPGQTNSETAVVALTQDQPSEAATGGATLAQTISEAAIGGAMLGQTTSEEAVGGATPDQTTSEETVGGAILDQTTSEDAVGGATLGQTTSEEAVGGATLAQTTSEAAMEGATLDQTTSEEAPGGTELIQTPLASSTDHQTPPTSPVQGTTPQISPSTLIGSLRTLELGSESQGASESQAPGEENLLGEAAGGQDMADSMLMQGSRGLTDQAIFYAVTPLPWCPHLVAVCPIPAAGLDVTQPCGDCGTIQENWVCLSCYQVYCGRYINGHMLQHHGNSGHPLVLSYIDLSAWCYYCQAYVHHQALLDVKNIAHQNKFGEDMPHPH
The protocol:
as §1

For test [9], the target named is T4, HDAC8 (Homo sapiens, UniProt Q9BY41).
T4 sequence (Q9BY41 1-377): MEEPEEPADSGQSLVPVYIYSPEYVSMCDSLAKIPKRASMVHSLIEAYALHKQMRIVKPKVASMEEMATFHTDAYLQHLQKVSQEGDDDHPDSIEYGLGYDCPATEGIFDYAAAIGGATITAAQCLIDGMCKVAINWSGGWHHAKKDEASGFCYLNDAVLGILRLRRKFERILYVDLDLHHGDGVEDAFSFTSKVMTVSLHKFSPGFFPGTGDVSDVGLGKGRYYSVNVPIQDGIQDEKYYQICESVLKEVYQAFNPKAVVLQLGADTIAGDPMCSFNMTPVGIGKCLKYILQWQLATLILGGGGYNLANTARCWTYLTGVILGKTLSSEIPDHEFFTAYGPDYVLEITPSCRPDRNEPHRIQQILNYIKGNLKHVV
The protocol: as §1

For test [10], the target named is T5, HDAC7 (Homo sapiens, UniProt Q8WUI4).
T5 sequence (Q8WUI4 1-952): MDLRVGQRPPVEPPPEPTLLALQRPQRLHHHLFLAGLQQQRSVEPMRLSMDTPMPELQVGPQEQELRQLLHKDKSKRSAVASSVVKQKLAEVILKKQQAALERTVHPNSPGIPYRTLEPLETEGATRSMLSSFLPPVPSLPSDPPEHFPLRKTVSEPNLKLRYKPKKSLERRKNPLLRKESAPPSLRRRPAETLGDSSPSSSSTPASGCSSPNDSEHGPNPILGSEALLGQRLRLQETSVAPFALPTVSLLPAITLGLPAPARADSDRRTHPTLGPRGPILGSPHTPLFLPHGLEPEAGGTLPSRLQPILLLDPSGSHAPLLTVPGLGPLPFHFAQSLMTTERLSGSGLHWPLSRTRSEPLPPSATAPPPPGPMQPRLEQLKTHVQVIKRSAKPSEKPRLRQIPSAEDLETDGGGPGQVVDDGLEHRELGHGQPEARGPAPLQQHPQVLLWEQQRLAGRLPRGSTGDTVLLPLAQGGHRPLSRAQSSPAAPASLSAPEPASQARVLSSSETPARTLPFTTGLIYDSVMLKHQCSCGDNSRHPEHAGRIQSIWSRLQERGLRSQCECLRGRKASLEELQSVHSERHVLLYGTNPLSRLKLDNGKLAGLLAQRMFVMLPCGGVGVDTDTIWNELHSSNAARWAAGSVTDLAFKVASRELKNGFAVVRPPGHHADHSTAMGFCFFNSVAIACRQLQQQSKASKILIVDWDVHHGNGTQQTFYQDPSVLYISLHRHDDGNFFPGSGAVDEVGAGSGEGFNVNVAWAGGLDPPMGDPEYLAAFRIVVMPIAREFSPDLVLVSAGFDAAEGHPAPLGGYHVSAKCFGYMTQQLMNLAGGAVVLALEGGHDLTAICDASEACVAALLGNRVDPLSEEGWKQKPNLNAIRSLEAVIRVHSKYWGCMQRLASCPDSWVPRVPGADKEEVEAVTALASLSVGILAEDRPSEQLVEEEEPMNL
The procedure:
(§2) The substrate was incubated with the eleven single HDAC purified enzymes. Upon its deacetylation, the fluorophore was released given rise to fluorescence emission. The latter was detected by a fluorimeter, and the IC50 values of the compounds were determined by analyzing dose-response inhibition curves.

Test [11] concerns the target HDAC9 (Homo sapiens, UniProt Q9UKV0). The protocol:
as §2

The IC50 is the midpoint of a concentration-inhibition curve.

Chain of HDAC2 (Q92769 whole entry): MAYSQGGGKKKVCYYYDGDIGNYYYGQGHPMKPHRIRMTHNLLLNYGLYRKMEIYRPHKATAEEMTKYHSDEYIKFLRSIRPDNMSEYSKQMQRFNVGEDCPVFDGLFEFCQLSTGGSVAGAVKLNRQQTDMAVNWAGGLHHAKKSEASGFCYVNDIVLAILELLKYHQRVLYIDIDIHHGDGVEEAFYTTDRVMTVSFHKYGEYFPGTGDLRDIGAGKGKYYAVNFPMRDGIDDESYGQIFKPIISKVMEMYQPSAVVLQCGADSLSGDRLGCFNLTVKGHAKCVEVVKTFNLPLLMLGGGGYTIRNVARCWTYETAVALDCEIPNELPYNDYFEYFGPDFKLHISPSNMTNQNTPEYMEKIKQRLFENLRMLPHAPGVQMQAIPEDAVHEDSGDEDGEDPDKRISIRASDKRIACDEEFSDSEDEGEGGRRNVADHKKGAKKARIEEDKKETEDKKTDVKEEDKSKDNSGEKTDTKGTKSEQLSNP
Chain of HDAC4 (P56524 whole entry): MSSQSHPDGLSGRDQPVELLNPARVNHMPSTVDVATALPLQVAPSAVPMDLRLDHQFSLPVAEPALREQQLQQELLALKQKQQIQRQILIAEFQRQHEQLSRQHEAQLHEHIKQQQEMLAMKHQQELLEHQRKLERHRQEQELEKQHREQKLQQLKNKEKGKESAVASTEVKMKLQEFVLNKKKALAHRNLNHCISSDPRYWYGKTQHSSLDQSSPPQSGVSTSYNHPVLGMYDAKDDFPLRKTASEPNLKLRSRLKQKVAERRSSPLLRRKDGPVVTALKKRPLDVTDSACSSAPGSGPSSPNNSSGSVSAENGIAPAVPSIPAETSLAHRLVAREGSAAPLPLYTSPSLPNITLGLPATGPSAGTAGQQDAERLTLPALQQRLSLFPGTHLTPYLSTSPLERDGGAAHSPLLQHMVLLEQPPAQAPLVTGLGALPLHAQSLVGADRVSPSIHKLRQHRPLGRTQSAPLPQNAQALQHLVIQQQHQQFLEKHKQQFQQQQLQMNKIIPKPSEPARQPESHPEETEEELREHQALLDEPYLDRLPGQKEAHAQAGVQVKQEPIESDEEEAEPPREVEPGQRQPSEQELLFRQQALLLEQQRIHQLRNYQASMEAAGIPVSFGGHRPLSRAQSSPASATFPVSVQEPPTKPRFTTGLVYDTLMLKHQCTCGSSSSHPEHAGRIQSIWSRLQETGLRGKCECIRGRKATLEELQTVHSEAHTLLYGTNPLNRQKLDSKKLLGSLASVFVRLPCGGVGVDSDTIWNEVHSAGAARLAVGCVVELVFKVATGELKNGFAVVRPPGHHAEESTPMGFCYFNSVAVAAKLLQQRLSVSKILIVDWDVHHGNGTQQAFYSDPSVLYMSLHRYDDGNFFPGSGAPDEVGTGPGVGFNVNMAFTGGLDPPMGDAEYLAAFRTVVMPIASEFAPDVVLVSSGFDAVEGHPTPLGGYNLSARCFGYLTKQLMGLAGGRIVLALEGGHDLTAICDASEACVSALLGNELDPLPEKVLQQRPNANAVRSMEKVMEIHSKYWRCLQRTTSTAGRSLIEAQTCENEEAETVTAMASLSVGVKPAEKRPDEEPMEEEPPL
Chain of HDAC3 (O15379 whole entry): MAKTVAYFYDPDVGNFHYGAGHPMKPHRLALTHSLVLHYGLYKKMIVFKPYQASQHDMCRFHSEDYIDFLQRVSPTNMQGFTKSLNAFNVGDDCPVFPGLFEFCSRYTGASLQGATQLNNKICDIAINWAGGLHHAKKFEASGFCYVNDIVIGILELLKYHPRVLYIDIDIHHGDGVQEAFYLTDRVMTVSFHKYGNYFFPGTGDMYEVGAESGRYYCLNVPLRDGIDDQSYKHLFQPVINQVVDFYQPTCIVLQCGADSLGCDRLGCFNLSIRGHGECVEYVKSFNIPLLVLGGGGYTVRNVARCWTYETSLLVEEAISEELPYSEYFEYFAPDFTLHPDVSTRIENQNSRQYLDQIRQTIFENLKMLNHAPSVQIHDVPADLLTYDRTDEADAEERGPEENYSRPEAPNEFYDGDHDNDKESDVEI
Chain of HDAC3 (Q9Y618 395-489 partner limits assumed): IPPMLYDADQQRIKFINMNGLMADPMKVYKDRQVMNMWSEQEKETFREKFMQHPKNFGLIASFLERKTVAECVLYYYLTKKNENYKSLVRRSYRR
Chain of HDAC1 (Q13547 whole entry): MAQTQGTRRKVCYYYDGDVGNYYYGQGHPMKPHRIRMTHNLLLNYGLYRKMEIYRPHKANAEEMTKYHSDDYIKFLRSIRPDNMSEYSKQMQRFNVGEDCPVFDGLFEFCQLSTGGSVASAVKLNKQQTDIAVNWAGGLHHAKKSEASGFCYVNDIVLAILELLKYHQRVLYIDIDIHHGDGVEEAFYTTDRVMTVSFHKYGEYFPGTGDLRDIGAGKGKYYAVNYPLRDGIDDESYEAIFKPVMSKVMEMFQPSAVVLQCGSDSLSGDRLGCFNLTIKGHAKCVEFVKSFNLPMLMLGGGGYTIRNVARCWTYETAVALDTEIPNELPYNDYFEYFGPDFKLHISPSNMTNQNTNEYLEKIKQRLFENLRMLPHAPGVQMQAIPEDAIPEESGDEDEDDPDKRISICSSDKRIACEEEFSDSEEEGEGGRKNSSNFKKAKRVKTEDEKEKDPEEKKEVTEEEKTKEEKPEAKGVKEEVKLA
Chain of HDAC5 (Q9UQL6 whole entry): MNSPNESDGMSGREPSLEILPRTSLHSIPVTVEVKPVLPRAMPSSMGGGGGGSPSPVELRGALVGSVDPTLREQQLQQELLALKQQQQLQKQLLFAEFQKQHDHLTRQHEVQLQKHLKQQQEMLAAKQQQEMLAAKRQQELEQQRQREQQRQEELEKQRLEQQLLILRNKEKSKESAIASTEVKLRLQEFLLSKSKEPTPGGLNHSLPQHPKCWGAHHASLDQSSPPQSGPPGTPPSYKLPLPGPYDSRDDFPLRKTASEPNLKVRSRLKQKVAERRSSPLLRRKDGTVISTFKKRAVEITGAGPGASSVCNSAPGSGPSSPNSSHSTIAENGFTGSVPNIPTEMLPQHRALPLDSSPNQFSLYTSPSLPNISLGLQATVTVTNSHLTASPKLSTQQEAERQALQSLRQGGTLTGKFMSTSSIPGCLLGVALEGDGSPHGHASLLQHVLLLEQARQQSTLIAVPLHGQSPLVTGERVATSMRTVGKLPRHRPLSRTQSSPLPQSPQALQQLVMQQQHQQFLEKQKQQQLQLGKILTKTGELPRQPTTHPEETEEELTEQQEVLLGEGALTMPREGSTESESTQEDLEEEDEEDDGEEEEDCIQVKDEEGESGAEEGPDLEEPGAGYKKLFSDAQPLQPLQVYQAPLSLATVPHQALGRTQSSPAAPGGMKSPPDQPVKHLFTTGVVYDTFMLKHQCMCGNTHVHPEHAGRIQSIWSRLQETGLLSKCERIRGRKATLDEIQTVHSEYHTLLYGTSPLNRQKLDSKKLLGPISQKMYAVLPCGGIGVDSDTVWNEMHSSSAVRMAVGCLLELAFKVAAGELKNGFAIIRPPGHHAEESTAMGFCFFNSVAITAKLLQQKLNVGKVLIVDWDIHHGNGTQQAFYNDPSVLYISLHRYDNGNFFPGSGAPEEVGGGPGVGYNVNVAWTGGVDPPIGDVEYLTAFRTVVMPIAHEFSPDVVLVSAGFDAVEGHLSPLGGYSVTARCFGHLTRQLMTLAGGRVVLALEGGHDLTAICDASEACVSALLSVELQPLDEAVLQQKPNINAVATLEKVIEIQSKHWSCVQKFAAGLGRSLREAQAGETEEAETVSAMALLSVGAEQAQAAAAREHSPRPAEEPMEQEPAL
Chain of HDAC9 (Q9UKV0 whole entry): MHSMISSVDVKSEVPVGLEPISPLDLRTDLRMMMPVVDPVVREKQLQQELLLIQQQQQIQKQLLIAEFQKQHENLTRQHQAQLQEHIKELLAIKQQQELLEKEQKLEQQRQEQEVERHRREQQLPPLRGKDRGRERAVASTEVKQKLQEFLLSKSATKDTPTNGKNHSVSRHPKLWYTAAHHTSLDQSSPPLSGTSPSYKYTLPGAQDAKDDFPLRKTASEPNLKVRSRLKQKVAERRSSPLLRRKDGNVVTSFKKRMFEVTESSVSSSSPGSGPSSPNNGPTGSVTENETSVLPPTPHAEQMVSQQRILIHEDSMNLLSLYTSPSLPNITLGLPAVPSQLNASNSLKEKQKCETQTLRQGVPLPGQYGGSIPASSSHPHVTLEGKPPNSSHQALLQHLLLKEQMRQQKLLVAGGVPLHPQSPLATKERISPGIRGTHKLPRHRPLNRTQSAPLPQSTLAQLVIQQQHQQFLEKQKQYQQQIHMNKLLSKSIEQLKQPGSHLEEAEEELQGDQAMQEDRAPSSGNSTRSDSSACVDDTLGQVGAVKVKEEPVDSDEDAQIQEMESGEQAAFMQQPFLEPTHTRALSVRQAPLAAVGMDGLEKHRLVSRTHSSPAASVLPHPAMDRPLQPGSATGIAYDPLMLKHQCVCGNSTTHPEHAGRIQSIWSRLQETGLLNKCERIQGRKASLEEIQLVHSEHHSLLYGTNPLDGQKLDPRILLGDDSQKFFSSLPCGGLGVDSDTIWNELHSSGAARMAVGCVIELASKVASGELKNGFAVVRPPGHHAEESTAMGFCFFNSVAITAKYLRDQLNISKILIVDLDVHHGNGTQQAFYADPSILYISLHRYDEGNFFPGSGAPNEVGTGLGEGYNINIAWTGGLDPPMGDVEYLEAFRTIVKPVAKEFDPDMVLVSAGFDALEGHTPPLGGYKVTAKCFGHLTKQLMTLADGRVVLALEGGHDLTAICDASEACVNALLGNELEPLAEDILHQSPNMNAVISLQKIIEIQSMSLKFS

`COc1cc2cc(c1)C(=O)Nc1ccccc1NC(=O)[C@H](CCCCCC(=O)NO)OC/C=C\2` [Example 1, 6-((Z)—(S)-19-methoxy-2,11-dioxo-13-oxa-3,10-diaza-tricyclo[15.3.1.0*4,9*]henicosa-1(21),4,6,8,15,17,19-heptaen-12-yl)-hexanoic hydroxamic acid]: the IC50 in test [1] came to 864 nM; in test [2] it was 2290 nM; in test [3], 948 nM; in [4], 3280 nM; in test [5], 1110 nM; in test [6] it was 5330 nM. Moreover, the IC50 is 1660 nM in test [7]; 59 nM in test [8]; 534 nM in [9]; 4300 nM in test [10]; 2020 nM in [11].
`COc1cc2cc(c1)C(=O)Nc1ccccc1NC(=O)[C@@H](CCCCCC(=O)NO)OC/C=C\2` [Example 2, 6-((Z)—(R)-19-methoxy-2,11-dioxo-13-oxa-3,10-diaza-tricyclo[15.3.1.0*4,9*]henicosa-1(21),4,6,8,15,17,19-heptaen-12-yl)-hexanoic hydroxamic acid]: the IC50 in test [1] came to 1340 nM; in [2], 1880 nM; in test [3], 1110 nM; in test [4], 2530 nM; in test [5], 885 nM; in [6], 3480 nM. For the same molecule, the IC50 in test [7] was found to be 1340 nM; in test [8], 75 nM; in test [9] it was 682 nM; in test [10], 2070 nM; in test [11] it was 1140 nM.
As to “(S)-2-(6,18-dioxo-5,6,7,9,10,11,12,13,18,19-decahydrobenzo[5,6][1,4,7]-oxadiazacyclo-tetradecino[10,9-b]indol-7-yl)-N-hydroxyacetamide [Example 3]”, the IC50 in test [1] worked out at 245 nM; in [2], 627 nM; in test [3], 379 nM; in test [4] it was 584 nM; in test [5] it was 331 nM; in test [6], 1690 nM. The IC50 in test [7] worked out at 496 nM; in test [8] it was 4.4 nM; in test [9] it was 297 nM; in test [10], 2230 nM; in [11], 602 nM.

Source of the values: US20120258993A1, “NON-NATURAL MACROCYCLIC AMIDE HDAC6 INHIBITOR COMPOUNDS AND THEIR USES AS THERAPEUTIC AGENTS” (SIGMA-TAU INDUSTRIE FARMACEUTICHE RIUNITE S.P.A., priority 2009, published 2012).
